The first assay concerns Carrageenan acute paw edema in Wistar rats. In words: anti-inflammatory effect in the acute paw edema model (Carrageenan) in Wistar rats. It is filed as in vivo. The note with it: 50 mg/kg oral; 1 hr after carrageenan; basal = 100. On the procedure:
General Procedure for Screening:
Evaluated the anti-inflammatory effect of compounds of formula-I using acute paw edema model in Wistar rats using the following procedure.
All animals will be divided into required number of groups (n=6 per group; 8-12 weeks age) on the basis of body weight. After grouping basal paw volume of all animals will be measured with the help of plethysmometer instrument followed by drug administration by oral route. After 1 hr of dosing 100 μL of 1% Carrageenan prepared in normal saline will be administered in hind paw of all animals by S.C route. After 1 hr of carrageenan dosing paw volume of all animals will be measure up to 6 hr at each 1 hr interval.
Regarding `CCC(=O)OCc1cn(C(=O)OCc2ccccc2)c2ccccc12` [CPL-2013-158, 3-Propionyloxymethyl-indole-1-carboxylic acid benzyl ester], the “paw volume, Time 1 hr” value is on record as 113.82.
`CCC(=O)OCc1cn(C(=O)OC(C)(C)C)c2ccccc12` [CPL-2012-139, 3-Propionyloxymethyl-indole-1-carboxylic acid tert-butyl ester]: the “paw volume, Time 1 hr” value is listed as 116.73.
Still for that read-out and setting: with `CCCCC(=O)OCc1cn(C(=O)OC(C)(C)C)c2ccccc12` [CPL-2012-144, 3-Pentanoyloxymethyl-indole-1-carboxylic acid tert-butyl ester] the figure was 112.98; with `CC(C)(C)OC(=O)n1cc(COC(=O)CCC(=O)O)c2ccccc21` [CPL-2012-136, Succinic acid mono-(1-tert-butoxycarbonyl-1H-indol-3-ylmethyl) ester], 117.26.
In the case of `CC(C)(C)OC(=O)n1cc(C(O)c2cc(F)c(F)cc2F)c2ccccc21` (stereo not drawn) [CPL-2013-156, 3-[Hydroxy-(2,4,5-trifluoro-phenyl)-methyl]indole-1-carboxylic acid tert-butyl ester], the “paw volume, Time 1 hr” value was 115.2.

The assay is the same for the next values; noted with them: 50 mg/kg oral; 2 hr after carrageenan; basal = 100.
Turning to `CCC(=O)OCc1cn(C(=O)OCc2ccccc2)c2ccccc12` [CPL-2013-158, 3-Propionyloxymethyl-indole-1-carboxylic acid benzyl ester], the “paw volume, Time 2 hr” value is 115.12.
In the case of `CCC(=O)OCc1cn(C(=O)OC(C)(C)C)c2ccccc12` [CPL-2012-139, 3-Propionyloxymethyl-indole-1-carboxylic acid tert-butyl ester], the “paw volume, Time 2 hr” value is 123.68.
With `CCCCC(=O)OCc1cn(C(=O)OC(C)(C)C)c2ccccc12` [CPL-2012-144, 3-Pentanoyloxymethyl-indole-1-carboxylic acid tert-butyl ester], the “paw volume, Time 2 hr” value came out at 123.96.
As for `CC(C)(C)OC(=O)n1cc(COC(=O)CCC(=O)O)c2ccccc21` [CPL-2012-136, Succinic acid mono-(1-tert-butoxycarbonyl-1H-indol-3-ylmethyl) ester], the “paw volume, Time 2 hr” value turned out to be 121.86.
For `CC(C)(C)OC(=O)n1cc(C(O)c2cc(F)c(F)cc2F)c2ccccc21` (stereo not drawn) [CPL-2013-156, 3-[Hydroxy-(2,4,5-trifluoro-phenyl)-methyl]indole-1-carboxylic acid tert-butyl ester], the “paw volume, Time 2 hr” value was 113.62.

Staying with this assay, now noted: 50 mg/kg oral; 3 hr after carrageenan; basal = 100.
Regarding `CCC(=O)OCc1cn(C(=O)OCc2ccccc2)c2ccccc12` [CPL-2013-158, 3-Propionyloxymethyl-indole-1-carboxylic acid benzyl ester], the “paw volume, Time 3 hr” value came out at 112.02.
`CCC(=O)OCc1cn(C(=O)OC(C)(C)C)c2ccccc12` [CPL-2012-139, 3-Propionyloxymethyl-indole-1-carboxylic acid tert-butyl ester]: the “paw volume, Time 3 hr” value was determined as 122.72.
The same measure, in the same setting: with `CCCCC(=O)OCc1cn(C(=O)OC(C)(C)C)c2ccccc12` [CPL-2012-144, 3-Pentanoyloxymethyl-indole-1-carboxylic acid tert-butyl ester] the figure was 125.7; with `CC(C)(C)OC(=O)n1cc(COC(=O)CCC(=O)O)c2ccccc21` [CPL-2012-136, Succinic acid mono-(1-tert-butoxycarbonyl-1H-indol-3-ylmethyl) ester], 123.85.
On to `CC(C)(C)OC(=O)n1cc(C(O)c2cc(F)c(F)cc2F)c2ccccc21` (stereo not drawn) [CPL-2013-156, 3-[Hydroxy-(2,4,5-trifluoro-phenyl)-methyl]indole-1-carboxylic acid tert-butyl ester], for which the “paw volume, Time 3 hr” value is 116.25.

Still in this assay, the particulars now being: 50 mg/kg oral; 4 hr after carrageenan; basal = 100.
Regarding `CCC(=O)OCc1cn(C(=O)OCc2ccccc2)c2ccccc12` [CPL-2013-158, 3-Propionyloxymethyl-indole-1-carboxylic acid benzyl ester], the “paw volume, Time 4 hr” value is given as 112.46.
Take `CCC(=O)OCc1cn(C(=O)OC(C)(C)C)c2ccccc12` [CPL-2012-139, 3-Propionyloxymethyl-indole-1-carboxylic acid tert-butyl ester]: the “paw volume, Time 4 hr” value stood at 120.63.
As to `CCCCC(=O)OCc1cn(C(=O)OC(C)(C)C)c2ccccc12` [CPL-2012-144, 3-Pentanoyloxymethyl-indole-1-carboxylic acid tert-butyl ester], the “paw volume, Time 4 hr” value was 123.32.
As for `CC(C)(C)OC(=O)n1cc(COC(=O)CCC(=O)O)c2ccccc21` [CPL-2012-136, Succinic acid mono-(1-tert-butoxycarbonyl-1H-indol-3-ylmethyl) ester], the “paw volume, Time 4 hr” value was 121.57.
Regarding `CC(C)(C)OC(=O)n1cc(C(O)c2cc(F)c(F)cc2F)c2ccccc21` (stereo not drawn) [CPL-2013-156, 3-[Hydroxy-(2,4,5-trifluoro-phenyl)-methyl]indole-1-carboxylic acid tert-butyl ester], the “paw volume, Time 4 hr” value is reported as 115.73.

Still in this assay, the particulars now being: 50 mg/kg oral; 5 hr after carrageenan; basal = 100.
With `CCC(=O)OCc1cn(C(=O)OCc2ccccc2)c2ccccc12` [CPL-2013-158, 3-Propionyloxymethyl-indole-1-carboxylic acid benzyl ester], the “paw volume, Time 5 hr” value was 108.11.
Same read-out and setting: with `CCC(=O)OCc1cn(C(=O)OC(C)(C)C)c2ccccc12` [CPL-2012-139, 3-Propionyloxymethyl-indole-1-carboxylic acid tert-butyl ester] the figure was 115.55; with `CCCCC(=O)OCc1cn(C(=O)OC(C)(C)C)c2ccccc12` [CPL-2012-144, 3-Pentanoyloxymethyl-indole-1-carboxylic acid tert-butyl ester], 123.07.
For the molecule `CC(C)(C)OC(=O)n1cc(COC(=O)CCC(=O)O)c2ccccc21` [CPL-2012-136, Succinic acid mono-(1-tert-butoxycarbonyl-1H-indol-3-ylmethyl) ester], the “paw volume, Time 5 hr” value worked out at 119.72.
In the case of `CC(C)(C)OC(=O)n1cc(C(O)c2cc(F)c(F)cc2F)c2ccccc21` (stereo not drawn) [CPL-2013-156, 3-[Hydroxy-(2,4,5-trifluoro-phenyl)-methyl]indole-1-carboxylic acid tert-butyl ester], the “paw volume, Time 5 hr” value came to 113.69.

Staying with this assay, now noted: 50 mg/kg oral; 6 hr after carrageenan; basal = 100.
For `CCC(=O)OCc1cn(C(=O)OCc2ccccc2)c2ccccc12` [CPL-2013-158, 3-Propionyloxymethyl-indole-1-carboxylic acid benzyl ester], the “paw volume, Time 6 hr” value is listed as 107.2.
Take `CCC(=O)OCc1cn(C(=O)OC(C)(C)C)c2ccccc12` [CPL-2012-139, 3-Propionyloxymethyl-indole-1-carboxylic acid tert-butyl ester]: the “paw volume, Time 6 hr” value amounted to 113.42.
For the molecule `CCCCC(=O)OCc1cn(C(=O)OC(C)(C)C)c2ccccc12` [CPL-2012-144, 3-Pentanoyloxymethyl-indole-1-carboxylic acid tert-butyl ester], the “paw volume, Time 6 hr” value is reported as 121.46.
As to `CC(C)(C)OC(=O)n1cc(COC(=O)CCC(=O)O)c2ccccc21` [CPL-2012-136, Succinic acid mono-(1-tert-butoxycarbonyl-1H-indol-3-ylmethyl) ester], the “paw volume, Time 6 hr” value stood at 111.76.
Regarding `CC(C)(C)OC(=O)n1cc(C(O)c2cc(F)c(F)cc2F)c2ccccc21` (stereo not drawn) [CPL-2013-156, 3-[Hydroxy-(2,4,5-trifluoro-phenyl)-methyl]indole-1-carboxylic acid tert-butyl ester], the “paw volume, Time 6 hr” value was 111.56.

The values above are taken from patent publication US9708258B2, “Indole 3-carbinol derivatives” (Cadila Pharmaceuticals Ltd, priority 2013, dated 2017).
